Results from ChEMBL document CHEMBL5303304, “EUbOPEN Chemogenomics Library - IncuCyte” (2023).

Assays:
[1] = system: HEK-293T; assay: Incucyte cell viability with HEK293T; assay type: toxicity, cell-based; conditions: human, 10 µM, compound concentration 10 uM
[2] = system: Fibroblast; assay: Incucyte cell viability with human fibroblast; assay type: toxicity, cell-based; conditions: 10 µM, compound concentration 10 uM
Further: unitless GR value; below 1 slowed growth and below 0 cell loss.

Compound	Growth Rate ([1]; 6 h, replicate number 1)	Growth Rate ([1]; 6 h, replicate number 2)	Growth Rate ([1]; 12 h, replicate number 1)	Growth Rate ([1]; 12 h, replicate number 2)	Growth Rate ([1]; 18 h, replicate number 1)	Growth Rate ([1]; 18 h, replicate number 2)	Growth Rate ([1]; 24 h, replicate number 1)	Growth Rate ([1]; 24 h, replicate number 2)	Growth Rate ([2]; 6 h, replicate number 2)	Growth Rate ([2]; 18 h, replicate number 2)	Growth Rate ([1]; 0 h, replicate number 1)	Growth Rate ([2]; 0 h, replicate number 2)	Growth Rate ([2]; 6 h, replicate number 1)	Growth Rate ([2]; 12 h, replicate number 1)	Growth Rate ([2]; 18 h, replicate number 1)	Growth Rate ([2]; 24 h, replicate number 1)	Growth Rate ([2]; 24 h, replicate number 2)	Growth Rate ([1]; 0 h, replicate number 2)	Growth Rate ([2]; 12 h, replicate number 2)	Growth Rate ([2]; 0 h, replicate number 1)
c1ccc(C(OC2CCN(CCCc3nnn[nH]3)CC2)c2ccccc2)cc1	0.35	0.46	0.7	0.67	0.57	0.85	0.65	0.75	-0.26	0.75	–	–	–	–	–	–	–	–	–	–
N=C(N)NCCC[C@H](NC(=O)CC1(CC(=O)N2CCN(C(c3ccccc3)c3ccccc3)CC2)CCCC1)C(=O)NCc1ccccc1.O=C(O)C(F)(F)F.O=C(O)C(F)(F)F	0.7	0.95	0.89	–	–	–	–	–	–	0.92	0.71	-0.98	0.88	0.74	0.47	0.8	0.64	–	–	–
N=C(N)Nc1cc(C2CCNCC2)cc(C(F)(F)F)c1.O=C(O)C(F)(F)F.O=C(O)C(F)(F)F	0.69	–	0.91	–	0.98	–	0.96	–	–	–	0.85	-1	–	–	–	0.99	–	-0.14	–	–
Cc1cccc(-c2[nH]c(CNc3ccccc3F)nc2-c2ccc3ncnn3c2)n1 [VACTOSERTIB]	0.95	0.58	–	–	–	–	–	–	–	–	0.84	-0.26	–	–	0.97	–	–	-0.43	–	–
C[C@@H](COCCC(=O)N1CCN(c2ncc(C(F)(F)F)cn2)CC1)Nc1cn[nH]c(=O)c1C(F)(F)F [ATAMPARIB]	–	0.59	–	0.8	–	0.9	–	0.75	0.74	0.13	0.95	–	0.88	0.3	0.22	0.39	0.15	0.81	0.15	–
CNc1ncc2cc(-c3ccc(-c4ncccc4F)cc3Cl)c(=O)n(C[C@H]3OC[C@H](N)CO3)c2n1	–	–	–	–	–	–	–	–	-0.26	0.35	-0.97	–	0.02	0.37	0.78	0.8	0.66	–	-0.06	–
COc1cc(-c2cncc(-c3ccc(N4CCN(C(C)C)CC4)cc3)c2C)cc(F)c1C(N)=O	–	–	–	–	–	–	–	–	–	–	-0.67	-0.84	–	–	–	–	–	–	–	–
CN(C)C(=O)Cn1cc(-c2nc(C3(c4ccc(-c5cnc(N)nc5)cc4)CC3)no2)cn1 [BI 0153]	0.25	–	–	–	0.95	–	0.92	–	-0.35	0.6	0.71	-0.89	0.57	–	0.91	0.73	0.96	–	0.4	-1
CCN(CC)C(=O)C1CN2CCc3cc(OC)c(OC)cc3C2CC1OC(C)=O (stereo not given) [BENZQUINAMIDE]	–	0.7	–	0.59	–	0.61	–	0.87	-0.43	0.6	0.39	–	–	–	–	–	0.97	–	1	–
COc1cc2nc([C@@H]3CCCS(=O)(=O)C3)n(C)c2cc1NC(=O)c1cccc(C(C)(F)F)n1	–	–	–	–	–	–	–	–	–	–	-0.79	-0.81	–	–	–	–	–	-0.88	–	–
